Test results taken from patent US12370192B2, “Azole-fused pyridazin-3(2H)-one derivatives” (TAKEDA PHARMACEUTICAL COMPANY LIMITED, priority 2019, dated 2025).

Experiments:
[1] = biological target: T1, human GPR139 receptor (Homo sapiens, UniProt Q6DWJ6); assay: GPR139 Competition Binding (membrane-based, tritium-labeled ligand); settings: T-REx-CHO membranes with human GPR139; 6.5 nM tritium-labeled ligand; 11-point curve, 30 μM maximum concentration; read-out: GPR139 Binding Affinity (pKi) (converted)
T1 construct: expressed in transfected cells; host or cells: T-REx-CHO (Thermo Fisher Scientific), doxycycline-induced
T1 sequence (Q6DWJ6 1-353): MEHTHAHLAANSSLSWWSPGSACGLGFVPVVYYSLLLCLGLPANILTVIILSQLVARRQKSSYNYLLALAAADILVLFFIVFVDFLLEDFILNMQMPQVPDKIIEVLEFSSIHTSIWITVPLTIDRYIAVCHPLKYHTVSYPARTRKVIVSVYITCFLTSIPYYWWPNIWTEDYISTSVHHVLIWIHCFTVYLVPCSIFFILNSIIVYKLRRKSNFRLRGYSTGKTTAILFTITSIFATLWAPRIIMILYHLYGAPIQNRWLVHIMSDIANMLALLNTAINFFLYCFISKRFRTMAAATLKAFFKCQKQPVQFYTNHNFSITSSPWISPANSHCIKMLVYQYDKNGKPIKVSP
In short: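 Membranes came from doxycycline-induced T-REx-CHO cells expressing human GPR139. They were incubated 20 min at room temperature with 6.5 nM tritiated ligand and compound (11 points, top 30 μM) in HEPES pH 7.3 buffer with MgCl2/CaCl2. Filter-bound counts gave Ki by four-parameter fit, reported as pKi.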

[2] = biological target: T1, human GPR139 receptor; assay: Measurement of GPR139 Activation Via Calcium Signaling (FLIPR, T-REx-CHO cells); type: cell-based; settings: T-REx-CHO cells stably expressing human GPR139, 11-point dose response, 10 μM maximum concentration, read-out: GPR139 Potency (pEC50) (converted)
In short: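 T-REx-CHO cells stably carrying human GPR139 under tetracycline control, induced with 2 μg/mL doxycycline for 17 h at 37 °C, loaded 40 min with Calcium 5 dye plus probenecid in HBSS/HEPES pH 7.4. Agonist added as 11-point series (10 μM top); fluorescence read 1 min; pEC50 from four-parameter fit.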

Row | Ki [1] | EC50 [2] | Compound
1 | 24 nM | 41.7 nM | Cc1ccc([C@H](C)NC(=O)Cn2ncc3c(c(C(F)(F)F)nn3C)c2=O)cc1F [Example 171, (S)—N-(1-(3-fluoro-4-methylphenyl)ethyl)-2-(1-methyl-4-oxo-3-(trifluoromethyl)-1,4-dihydro-5H-pyrazolo[3,4-d]pyridazin-5-yl)acetamide]
2 | 178 nM | 93.3 nM | C[C@H](NC(=O)Cn1ncc2c(c(C(F)(F)F)nn2C)c1=O)c1ccc(C(F)(F)F)cc1 [Example 172, (S)-2-(1-methyl-4-oxo-3-(trifluoromethyl)-1,4-dihydro-5H-pyrazolo[3,4-d]pyridazin-5-yl)-N-(1-(4-(trifluoromethyl)phenyl)ethyl)acetamide]
3 | 234 nM | 17.8 nM | [2H]C([2H])([2H])c1ccc([C@H](C)NC(=O)Cn2ncc3ccn(C)c3c2=O)cc1 [Example 174, (S)-2-(1-methyl-7-oxo-1,7-dihydro-6H-pyrrolo[2,3-d]pyridazin-1-yl)-N-(1-(4-(methyl-d3)phenyl)ethyl)acetamide]
